In brackets after ≈: the same amount, converted by molar mass.
Columns and labels:
Serratia marcescens = assay: Minimum inhibitory concentration in vitro; type: cell-based; details: ß-Lactamase bildende Stämme
Source text: (§1) Zum Nachweis der antimikrobiellen Wirksamkeit der erwähnten Produkte wurde das (6R,7R)-7-[2-(2-Amino-5-thiazolyl)-2-[(Z)-methoxyimino]acetamido]-3-[[(2,5-dihydro-2-methyl-5-oxo-as-triazin-3-yl)thio]methyl]-8-oxo-5-thia-1-azabicyclo[4.2.0]oct-2-en-2-carbonsäure-Natriumsalz auf seine Aktivität in vitro gegen verschiedene Krankheitserreger getestet. Nachstehend sind die entsprechenden Mindesthemmkonzentrationen (MIC; µg/ml) zusammengestellt: […]

Enterobacter cloacae = assay: Minimum inhibitory concentration in vitro; type: cell-based; details: ß-Lactamase bildende Stämme
Source text: as §1

[1] = test system: Pseudomonas aeruginosa Stamm 1; assay: Minimum inhibitory concentration in vitro; type: cell-based; details: STAMM1, ß-Lactamase bildende Stämme
Source text: as §1

Proteus mirabilis = assay: Minimum inhibitory concentration in vitro; type: cell-based; details: ß-Lactamase bildende Stämme
Source text: as §1

Escherichia coli = assay: Minimum inhibitory concentration in vitro; type: cell-based; details: ß-Lactamase bildende Stämme
Source text: as §1

[2] = test system: Pseudomonas aeruginosa Stamm 2; assay: Minimum inhibitory concentration in vitro; type: cell-based; details: STAMM2, ß-Lactamase bildende Stämme
Source text: as §1

Staphylococcus aureus = assay: Minimum inhibitory concentration in vitro; type: cell-based
Source text: as §1

Neisseria gonorrhoeae = assay: Minimum inhibitory concentration in vitro; type: cell-based
Source text: as §1

Haemophilus influenzae = assay: Minimum inhibitory concentration in vitro; type: cell-based
Source text: as §1

Proteus vulgaris = assay: Minimum inhibitory concentration in vitro; type: cell-based; details: ß-Lactamase bildende Stämme
Source text: as §1

Toxicity (lethal dose) = type: in vivo

## CO/N=C(\C(=O)N[C@@H]1C(=O)N2C(C(=O)O)=C(CSc3nc(=O)cnn3C)CS[C@H]12)c1csc(N)n1 [(6R,7R)-7-[2-(2-Amino-4-thiazolyl)-2-[(Z)-methoxyimino]ace-tamido]-3-[[(2,5-dihydro-2-methyl-5-oxo-as-triazin-3-yl)thio]methyl]-8-oxo-5-thia-1-azabicyclo[4.2.0]oct-2-en-2-carbonsäure-Natriumsalz]
Serratia marcescens
  MIC: 0.16 µg/mL (≈ 0.297 µM)
Enterobacter cloacae
  MIC: 2.5 µg/mL (≈ 4.64 µM)
[1]
  MIC: 40 µg/mL (≈ 74.3 µM)
Proteus mirabilis
  MIC: 0.04 µg/mL (≈ 0.0743 µM)
Escherichia coli
  MIC: 0.04 µg/mL (≈ 0.0743 µM)
[2]
  MIC: 40 µg/mL (≈ 74.3 µM)
Staphylococcus aureus
  MIC: 2.5 µg/mL (≈ 4.64 µM)
Neisseria gonorrhoeae
  MIC: 0.02 µg/mL (≈ 0.0371 µM)
Haemophilus influenzae
  MIC: 0.02 µg/mL (≈ 0.0371 µM)
Proteus vulgaris
  MIC: 0.02 µg/mL (≈ 0.0371 µM)
Toxicity (lethal dose); i.v.
  LD100: 1000 mg/kg
Toxicity (lethal dose); p.o.
  LD100: >5000 mg/kg
Toxicity (lethal dose); s.c.
  LD100: >5000 mg/kg

From patent EP0036650A2, “Cephalosporin derivatives, process for their preparation, corresponding compositions, their use in the treatment of diseases and intermediates” (F. HOFFMANN-LA ROCHE & CO. Aktiengesellschaft, priority 1980, dated 1981)
